This is an account of results in paper PMC2363072, “Oral topotecan: bioavailability and effect of food co-administration” (British Journal of Cancer, 1999).

Series [1] can be described thus: clinical. Format: in vivo, human (patients with solid tumours). Particulars: for Urinary excretion: 24 h urine. The source says:
(§1) Topotecan (Hycamtin) is one of the prototypes of a promising new class of cytotoxic drugs that act through inhibition of topoisomerase I. Topoisomerase I is a nuclear enzyme that relieves the torsional strain in DNA ahead of the moving replication fork (Hsiang et al, 1988, 1989). Inhibition of the enzyme results in lethal DNA damage during transcription and replication. The E-ring lactone in the basic structure of topotecan is considered to be essential for interaction with the topoisomerase I enzyme (Hertzberg et al, 1989; Pommier et al, 1991). […] Prolonged administra- tion increases the probability that tumour cells will be exposed to topotecan during DNA replication, i.e. when they are most suscep- tible. In-vivo in patients there is yet no convincing evidence of a clinically relevant schedule dependency. Intravenous (i.v.) topotecan administered as daily 30-min infu- sions for 5 days has recently received marketing approval for the treatment of patients with ovarian cancer after failure of initial or subsequent platinum-based chemotherapy. An oral gelatin capsule formulation has now been developed (Creemers et al, 1997; Gerrits et al 1998). A phase I study has determined the maximum tolerated dose (MTD) for oral topotecan to be 2.3 mg m-2 for the daily times five dosing schedule (Gerrits et al, 1998). […] In these studies, bioavailability was tested in fasted patients. […] Food can have marked effects on drug absorption by increasing, decreasing, or sometimes simply delaying it. Food can also influence drug metabolism, and certain food components, such as protein and fat, are particularly potent in this respect. For an oral formulation it is therefore essential to investigate the effect of food co-administration on the pharmacokinetics. The aims of the present study were (1) to evaluate the effect of fed and fasted conditions on the bioavailability and pharmaco- kinetics of oral topotecan, and (2) to determine the absolute bioavailability of the gelatin capsule formulation. Oral topotecan: bioavailability and effect of food co-administration VMM Herben1,2 , H Rosing1 , WW ten Bokkel Huinink2 , DM van Zomeren1 , D Batchelor2 , E Doyle3 , FD Beusenberg4 , JH Beijnen1,2 and JHM Schellens2 1 Slotervaart Hospital/The Netherlands Cancer Institute, Department of Pharmacy and Pharmacology, Amsterdam, The Netherlands; 2 Antoni van Leeuwenhoek Hospital/The Netherlands Cancer Institute, Department of Medical Oncology, Amsterdam, The Netherlands; 3 SmithKline Beecham Pharmaceuticals, Department of Drug Metabolism and Pharmacokinetics, Hertfordshire, UK; 4 SmithKline Beecham Farma, Rijswijk, The Netherlands Summary The aims of the study were twofold: (1) to evaluate the effect of food on the relative oral bioavailability of topotecan gelatin capsules in patients with solid tumours, and (2) to determine the absolute bioavailability of oral topotecan with reference to the intravenous (i.v.) formulation. […] On day 1 of the first treatment course patients were administered 2.3 mg m-2 day-1 of oral topotecan with or without a high-fat breakfast. They crossed over to receive the alternate regimen on day 2. In the second course (3 weeks later) fasted patients received topotecan orally (2.3 mg m-2 day-1 ) or i.v. ([…]). They crossed over to receive the alternate regimen on day 2. On days 3-5 of both treatment courses patients received oral topotecan. Plasma pharmacokinetics were performed on days 1 and 2 of the first and second course using a high-performance liquid chromatographic assay. Eighteen patients were enrolled in the study. The ratio of the area under the curve to infinity during fasted and high-fat treatment was 0.93 0.23 (90% confidence interval (CI) 0.83-1.03). Maximal plasma concentrations of topotecan were similar after ingestion of the capsules with (10.6 4.4 ng ml-1 ) or without food (9.2 4.1 ng ml-1 ) (P = 0.130). […]

Series [2] can be described thus: clinical. On the set-up: species or system human (patients with solid tumours). The conditions noted are these: human, in vivo.
From the text: as §1

Details of series [3]: method as in Davies et al, 1995. The conditions noted are these: dogs, ref Davies et al, 1995; cited from earlier work.
On the set-up of series [4]: method as in Eckardt et al, 1995; Schellens et al, 1996. The conditions noted are these: i.v. formulation administered orally; fasted patients; ref Eckardt et al, 1995; Schellens et al, 1996; cited from earlier work.
Details of series [5]: method as in Gerrits et al, 1998. Particulars: oral gelatin capsule, ref Gerrits et al, 1998, cited from earlier work.
Series [6] has as its system topoisomerase I. On the set-up: method as in Johnson and Wood, personal communication. Particulars: ref Johnson and Wood, personal communication; cited from earlier work.
The mark [7] stands for this setting: metabolite as total of lactone and carboxylate, corrected for administered topotecan dose.
[8] abbreviates: total of the analyte, plasma, after i.v. topotecan 1.5 mg m-2.
Setting [9] is: total, corrected for actual administered topotecan dose.

Read-outs that look alike come from different tables or passages of the source.

Consider `CC[C@@]1(O)C(=O)OCc2c1cc1n(c2=O)Cc2cc3c(CN(C)C)c(O)ccc3nc2-1` [topotecan, Topotecan], for which the “absolute bioavailability (F) using AUC0-t” value in series [1] (human, in vivo) is listed as 40%. For the same compound, the bioavailability in series [1] (human, in vivo, absolute bioavailability (F)) is 42 ± 13%; in series [1] (human, in vivo, bioavailability calculated using only the lactone data) it was 38%; in series [4], 30-44%. Besides, the “coefficient of variation of the AUC0- (interpatient variability)” value in series [1] (human, in vivo, iv) is 25%; in series [1] (human, in vivo, po), 44%. In addition, the “lactone:total topotecan AUC0- ratio” value in series [1] (human, in vivo, iv) worked out at 0.38; in series [1] (human, in vivo, po), 0.35. Further, the “AUC0- (area under the curve to infinity)” value in series [1] (human, in vivo, iv, 1.5 mg) was 38.6 ng·h/mL; in series [1] (human, in vivo, po, 2.3 mg) it was 22.7 ng·h/mL. Further, the “t1/2 (apparent terminal half-life)” value in series [1] (human, in vivo, iv, 1.5 mg) is recorded as 2.64 h. Further, the Cmax in series [1] (human, in vivo, iv, 1.5 mg, Cmax) came out at 33.9 ng/mL; in series [1] (human, in vivo, po, 2.3 mg, Cmax), 6.3 ng/mL. In addition, the AUC0-t in series [1] (human, in vivo, po, 2.3 mg) was 20.4 ng·h/mL; in series [2] (po, 2.3 mg, AUC0-t), 19.6 ng·h/mL. The “plasma concentration at the pre-dose time point for day 2 (carry-over), mean” value in series [2] came to 0.43 ng/mL. Besides, in series [2] (po, 2.3 mg), the “AUC0- (to infinity) ratio fasted/fed” value is listed as 0.88. In addition, the “time needed to reach maximal plasma levels (tmax), median” value in series [2] (po, 2.3 mg) was found to be 2.0 h. In addition, the half-life in series [2] (po, 2.3 mg, t1/2 (apparent terminal half-life)) is 3.84 h; in series [2] (total, oral 2.3 mg m-2, fed, read-out: t1/2 (apparent terminal half-life) (converted)), 3.49 h. Moreover, the Tmax in series [2] (po, 2.3 mg, time needed to reach maximal plasma levels (tmax), median) was 3.1 h. Moreover, in series [3], the “part of an absorbed oral dose that enters the blood circulation as the open-ring form” value is on record as “approximately 2.5%”. Further, the “maximum tolerated dose (MTD)” value in series [5] (daily times five dosing schedule) is 2.3 mg m-2. Besides, in series [5] (daily times five), the “Dose-limiting toxicity (DLT)” value was “NCI CTC grade 4 neutropenia”.
Turning to `CC[C@@]1(O)C(=O)OCc2c1cc1n(c2=O)Cc2cc3c(CNC)c(O)ccc3nc2-1` [N-desmethyltopotecan], the results for the “metabolic ratio (metabolite:topotecan AUC ratio)” value in series [1] (after i.v. administration) and in series [1] (after oral administration) were 4.5% and 6.9%, respectively. The “time at which maximal total metabolite plasma levels were reached, median” value was found to be 4.0 h in series [1] (after ingestion of topotecan capsules) and 2.1 h in series [1] (after the start of the i.v. infusion). In series [1] (lactone form of metabolite, lower limit of quantification 0.1 ng ml-1), the lactone plasma concentrations result is “below the detection limit in six patients”. In addition, in series [1] (setting [7]), the “oral:i.v. AUC0- (to infinity) ratio” value was 62%. For the same compound, the “oral:i.v. AUC0-t ratio” value in series [1] (setting [7]) was found to be 71%. The Cmax in series [1] (plasma, after i.v. topotecan 1.5 mg m-2) was found to be 0.44 ng/mL; in series [1] (plasma, after oral topotecan 2.3 mg m-2), 0.34 ng/mL. The t1/2 ratio oral/i.v. in series [1] (total) stood at 1.17. Also, the AUC0-t came to 2.7 ng·h/mL in series [1] (total (lactone + carboxylate) of the analyte, plasma, after oral topotecan 2.3 mg m-2) and 2.4 ng·h/mL in series [1] (setting [8]). The Urinary excretion in series [1] (total of the analyte, % of i.v. topotecan dose) is given as 0.9%; in series [1] (total of the analyte, % of oral topotecan dose (topotecan corrected for F)), 1.1%. The “t1/2 (apparent terminal half-life)” value in series [1] (total of the analyte, after i.v. topotecan 1.5 mg m-2) is on record as 6.21 h; in series [1] (total of the analyte, after oral topotecan 2.3 mg m-2) it was 7.25 h. Besides, the “AUC0- (area under the curve to infinity)” value in series [1] (setting [8]) is 4.8 ng·h/mL; in series [1] (total of the analyte, plasma, after oral topotecan 2.3 mg m-2), 4.6 ng·h/mL. In series [1] (setting [9]), the “AUC0- (to infinity) ratio oral/i.v.” value was 0.62. For the same compound, the AUC0-t ratio oral/i.v. in series [1] (setting [9]) is 0.71. Further, in series [1] (setting [9]), the Cmax ratio oral/i.v. was 0.51. In addition, the “topoisomerase I-inhibiting activity relative to parent compound” value in series [6] is given as “slightly less topoisomerase I-inhibiting activity than the parent compound”.
